Patent US5300672A (priority 1992, dated 1994)
Like-named read-outs stand apart in the source and are kept apart here.

Columns and labels:
Pseudomonas fluorescens = assay: Alternate Minimum Inhibitory Concentrations Test (Table 4), Ps.fl; format: cell-based; conditions: Table 4 alternate test; for MIC: Pseudomonas fluorescens, read-out: MIC Ps.fl; for MIC Ps.fl (I = inactive): class symbol
Protocol: The compounds of Examples 1-8, 12-26, 28-33, 36-37, 39-42, 44-109, 111-114, and 116-120 were subjected also to the following alternate biocidal activity test procedures with the results as indicated in Table 4.
The MIC test measures the viability of Pseudomonas fluorescens inoculum in TSB when exposed for 72 hours to varying concentrations of test compound.
A 125 μl aliquot of 10,000 ppm test compound in acetone was added to 4.88 ml of TSB to provide a 250 ppm solution. From this solution, 100 μL was transferred to the first row of two microtiter plate columns. Both replicates and five additional compounds were all serially diluted 1:1 to a final concentration of 0.8 ppm in TSB.
Inoculation was accomplished by diluting a 24 hr Ps fl culture, four mls per 36 mls of phosphate buffer solution. A Dynatech autoinoculator was used to transfer 1.5 μl of this cell suspension to the microtiter plates. The plates were incubated at 30° C. for 3 days before the lowest concentration at which no growth occurs was recorded in the database.

[1] = system: Pseudoperonospora cubensis; assay: whole plant or invertebrate; format: in vivo; conditions: Pseudoperonospora cubensis, in Cucumis sativus, 168 h; read-out: % Control CDM
Piricularia oryzae = assay: whole plant or invertebrate; format: in vivo; conditions: for pest or weed control at 200 ppm: read-out: % Control RB, application rate 200 ppm
[2] = system: Pellicularia filamentosa (f. sp. sasiki); assay: whole plant or invertebrate; format: in vivo
Phytophthora infestans = assay: whole plant or invertebrate; format: in vivo; conditions: for pest or weed control at 200 ppm / pest or weed control at 50 ppm: Phytophthora infestans, in Solanum lycopersicum, 96 h
[3] = system: Puccinia recondita (f. sp. tritici Races PKB and PLD); assay: whole plant or invertebrate; format: in vivo; conditions: for pest or weed control at 200 ppm: Puccinia recondita, 240 h, read-out: % Control WLR
[4] = system: Erysiphe graminis (f. sp. tritici); assay: whole plant or invertebrate; format: in vivo
[5] = 250 ppm to 0.8 ppm in TSB, 72 hours, 30° C.
[6] = read-out: % Control TLB, application rate 200 ppm
[7] = Blumeria graminis, read-out: % Control WPM

| Compound | MIC (Pseudomonas fluorescens; [5]) [µg/mL] | pest or weed control at 200 ppm [1] [%] | pest or weed control at 200 ppm (Piricularia oryzae; Pyricularia oryzae) [%] | pest or weed control at 200 ppm (Phytophthora infestans; [6]) [%] | pest or weed control at 200 ppm [3] [%] | pest or weed control at 200 ppm [4, 7] [%] | pest or weed control at 200 ppm (Phytophthora infestans; read-out: % Control TLB) [%] | other results |
| --- | --- | --- | --- | --- | --- | --- | --- | --- |
| CCCCCCCCNC(=O)/C=C\SC(=O)c1ccc(OCCCCCCC)cc1 [Compound 45, N-octyl-cis-3-[(4-heptoxybenzoyl)thio]acrylamide] | > 250 | 0 | 0 | 0 | 0 | 0 | – | pest or weed control at 200 ppm ([2]; 120 h, read-out: % Control RSB): 80% |
| CCCCCCCCNC(=O)/C=C\SC(=O)/C=C/c1cccs1 [Compound 66, N-octyl-cis-3-[(trans-3-(2-thiophene)propenoyl)thio]acrylamide] | > 250 | – | – | – | 0 | 0 | 90 | pest or weed control at 50 ppm (Piricularia oryzae; Pyricularia oryzae, read-out: % Control RB, application rate 50 ppm): 50%; pest or weed control at 200 ppm ([2]; 120 h, read-out: % Control RSB): 0% |
| C=CC(=O)S/C=C\C(=O)NCCCCCCCC [Compound 71, N-octyl-cis-3-(propenoylthio)acrylamide] | > 250 | – | 0 | 100 | 0 | – | – | pest or weed control at 200 ppm ([2]; 120 h, read-out: % Control RSB): 0%; pest or weed control at 12 ppm [4, 7]: 50% |
| CCCCCCCCNC(=O)/C=C\SC(=O)c1cnc2ccccc2c1 [Compound 72, N-octyl-cis-3-[(3-quinoline)carbonylthio]acrylamide] | > 250 | – | 0 | – | 0 | 0 | 90 | pest or weed control at 200 ppm ([2]; 120 h, read-out: % Control RSB): 50% |
| CCCCCCCCNC(=O)/C=C\SC(=O)CC1CC(C(C)=O)C1(C)C (stereo not shown) [Compound 75] | > 250 | 0 | 50 | – | 50 | 0 | – | pest or weed control at 12 ppm ([2]; 120 h, read-out: % Control RSB): 0%; pest or weed control at 50 ppm (Phytophthora infestans; read-out: % Control TLB): 90% |
| CCCCCCCCNC(=O)/C=C\SC(=O)CCOc1ccccc1 [Compound 79, N-octyl-cis-3-[(3-phenoxypropanoyl)thio]acrylamide] | > 250 | – | 0 | 100 | 0 | 0 | – | pest or weed control at 200 ppm ([2]; 120 h, read-out: % Control RSB): 0% |
| CCCCCCCCNC(=O)/C=C\SC(=O)c1ccc([N+](=O)[O-])cc1C [Compound 99, N-octyl-cis-3-[(2-methyl-4-nitrobenzoyl)thio]acrylamide] | > 250 | 50 | 75 | 0 | 0 | 50 | – | – |
| CCCCCCCCNC(=O)/C=C\SC(=O)c1ccc(Cl)cc1Cl [Compound 100, N-octyl-cis-3-[(2,4-dichlorobenzoyl)thio]acrylamide] | > 250 | 50 | 0 | 0 | 0 | 50 | – | – |
| CCCCCCCCNC(=O)/C=C\SC(=O)C1C=CCC=C1C (stereo not drawn) [Compound 101, N-octyl-cis-3-[(2-methylcyclohexa-2,5-diene)carbonylthio]acrylamide] | > 250 | 50 | 75 | 0 | 0 | 0 | – | – |
| CCCCCCCCNC(=O)/C=C\SC(=O)c1cccc(Cl)c1Cl [Compound 102, N-octyl-cis-3-[(2,3-dichlorobenzoyl)thio]acrylamide] | > 250 | 50 | 50 | 0 | 0 | 0 | – | – |
| CCCCCCCCNC(=O)/C=C\SC(=O)c1ccc(Cl)c(Cl)c1 [Compound 103, N-octyl-cis-3-[(3,4-dichlorobenzoyl)thio]acrylamide] | > 250 | 50 | 50 | 0 | 0 | 85 | – | – |
| CCCCCCCCNC(=O)/C=C\SC(=O)c1ccc(Cl)c([N+](=O)[O-])c1 [Compound 104, N-octyl-cis-3-[(3-nitro-4-chlorobenzoyl)thio]acrylamide] | > 250 | 0 | 50 | 0 | 0 | 0 | – | – |
| CCCCCCCCNC(=O)/C=C\SC(=O)c1ccc(C)cc1 [Compound 106, N-octyl-cis-3-[(4-methylbenzoyl)thio]acrylamide] | > 250 | 50 | 0 | 0 | 0 | 0 | – | – |
| CCCCCCCCNC(=O)/C=C\SC(=O)c1cc([N+](=O)[O-])ccc1[N+](=O)[O-] [Compound 107, N-octyl-cis-3-[(2,5-dinitrobenzoyl)thio]acrylamide] | > 250 | 0 | 0 | 0 | 0 | 50 | – | – |
| CCCCCCCCNC(=O)/C=C\SC(=O)c1cnccc1Cl [Compound 108, N-octyl-cis-3-[(4-chloro-3-pyridine)carbonylthio]acrylamide] | > 250 | 90 | 0 | – | 0 | 0 | 90 | – |
| CCCCCCCCNC(=O)/C=C\SC(=O)/C=C/C=C/c1ccccc1 [Compound 109, N-octyl-cis-3-[(trans,trans-5-phenyl-2,4-pentadienoyl)thio]acrylamide] | > 250 | 50 | 0 | 0 | 0 | 0 | – | – |
| CCCCCCCCNC(=O)/C=C\SC(=O)CCCCCCC(=O)OC [Compound 110, N-octyl-cis-3-[(7-methoxycarbonylheptanoyl)thio]acrylamide] | – | 70 | 75 | – | 0 | 0 | 90 | – |
| CCCCCCCCNC(=O)/C=C\SC(=O)c1ccc(Br)o1 [Compound 111, N-octyl-cis-3-[(5-bromo-2-furoyl)thio]acrylamide] | > 250 | 85 | 0 | – | 0 | 0 | 80 | – |
| CCCCCCCCNC(=O)/C=C\SC(=O)CCCCCCCC(=O)OC [Compound 117, N-octyl-cis-3-[(8-methoxycarbonyloctanoyl)thio]acrylamide] | – | – | 0 | 0 | 0 | 0 | – | MIC Ps.fl (I = inactive) (Pseudomonas fluorescens): I; pest or weed control at 50 ppm [1]: 95% |
| CCCCCCCCNC(=O)/C=C\SC(=O)CCCCC(=O)OC [Compound 118, N-octyl-cis-3-[(5-methoxycarbonylpentanoyl)thio]acrylamide] | – | 100 | 75 | – | 0 | 0 | 90 | MIC Ps.fl (I = inactive) (Pseudomonas fluorescens): I |
| CCCCCCCCNC(=O)/C=C\SC(=O)CCCCCCCCC(=O)OC [Compound 119, N-octyl-cis-3-[(9-methoxycarbonylnonanoyl)thio]acrylamide] | – | 70 | 50 | – | 0 | 0 | 80 | MIC Ps.fl (I = inactive) (Pseudomonas fluorescens): I |
| CCCCCCCCNC(=O)/C=C\SC(=O)CCCOc1ccccc1 [Compound 120, N-octyl-cis-3-[(4-phenoxybutanoyl)thio]acrylamide] | – | 90 | 0 | – | 0 | 0 | – | MIC Ps.fl (I = inactive) (Pseudomonas fluorescens): I; pest or weed control at 50 ppm (Phytophthora infestans; read-out: % Control TLB): 80% |
| N-octyl-cis-3-[(3-cyanobenzoyl)thio]acrylamide [Compound 67] | – | – | – | – | – | – | – | MIC Ps.fl (Pseudomonas fluorescens; [5]): > 250 Ppm; % Control RB (Piricularia oryzae; in vivo): 0 % Control; % Control RSB ([2]; in vivo): 0 % Control; % Control TLB (Phytophthora infestans; application rate 200 ppm): 95 % Control; % Control WLR ([3]; in vivo): 0 % Control; % Control WPM ([4]; in vivo): 0 % Control |
